The target in the first experiment is T1, human β3-adrenergic receptor (Homo sapiens, UniProt P13945).
T1 construct: expressed in transfected cells
T1 sequence (P13945 whole entry): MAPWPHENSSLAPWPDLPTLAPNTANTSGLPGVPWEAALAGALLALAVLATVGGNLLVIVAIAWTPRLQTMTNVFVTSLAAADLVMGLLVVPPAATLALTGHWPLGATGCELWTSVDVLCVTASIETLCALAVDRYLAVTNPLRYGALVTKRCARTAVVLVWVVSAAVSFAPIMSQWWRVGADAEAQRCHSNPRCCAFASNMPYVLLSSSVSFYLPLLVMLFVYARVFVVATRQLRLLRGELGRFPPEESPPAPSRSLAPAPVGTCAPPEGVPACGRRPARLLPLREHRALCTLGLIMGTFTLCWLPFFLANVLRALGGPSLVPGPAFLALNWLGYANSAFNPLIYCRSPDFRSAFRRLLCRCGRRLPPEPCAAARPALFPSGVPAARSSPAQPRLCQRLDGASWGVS
Description: cAMP levels in CHO-K1 cells expressing the human β3-adrenergic receptor. The class given is cell-based. As to conditions: 10 μM, 15 min. The procedure:
CHO-K1 cells stably expressing the human β3-adrenergic receptors were serum-starved overnight and stimulated with an agonist, final concentration 1×10^−5 M, for 15 min in stimulation buffer (HBSS supplemented with 1% BSA, 5 mM HEPES and 1 mM IBMX, pH 7.4) The medium was then aspirated and to end the reaction, 100 μL of 95% EtOH was added to each well of the 24-well plate and cells were kept at −20° C. overnight. The next day EtOH was allowed to evaporate and 250 μL of lysis buffer (1% BSA, 5 mM HEPES and 0.3% Tween-20, pH 7.4) was added to each well. The plate was kept at −80° C. for 30 min and thawed in room temperature. Intracellular cAMP levels were detected using an alpha screen cAMP kit (6760635D from Perkin Elmer). The activity for each compound is compared to that of isoproterenol.
As for `CCS(=O)(=O)N[C@H]1CC[C@@H](CC(C)(C)NC[C@H](O)c2cncc(F)c2)CC1` [Compound 18, N-((cis)-4-(2-(((R)-2-(5-fluoropyridin-3-yl)-2-hydroxyethyl)amino)-2-methylpropyl)cyclo-hexyl)ethanesulfonamide], the “Activity (intracellular cAMP compared to that of isoproterenol)” value is recorded as “+ +”.

Staying with this experiment, now noted: CHO-K1, 0.25 h, 15 min, read-out: Activity (intracellular cAMP compared to that of isoproterenol).
`O[C@H](c1cccc(F)c1)C12CCC(Cc3ccccc3)(CC1)N2` [Compound 43, (R)-(4-benzyl-7-azabicyclo-[2.2.1]heptan-1-yl)(3-fluoro-phenyl)methanol]: the Emax at 10 µM was 50 to 75%.

Take `CC(C)(C[C@H]1CC[C@H](S(N)(=O)=O)CC1)NC[C@H](O)c1cccc(F)c1` [Compound 22, (trans)-4-(2-(((R)-2-(3-fluorophenyl)-2-hydroxy-ethyl)amino)-2-methyl-propyl)cyclohexane-1-sulfonamide]: the Emax at 10 µM was greater than 75%. With `CC(C)(C[C@@H]1CCCN(C(=O)C(F)(F)F)C1)NC[C@H](O)c1cccc(F)c1` [Compound 9, 2,2,2-trifluoro-1-((S)-3-(2-(((R)-2-(3-fluorophenyl)-2-hydroxyethyl)amino)-2-methylpropyl)piperidin-1-yl)-ethan-1-one], the Emax at 10 µM fell in the range of 50 to 75%. The same measure, in the same setting: the same measure for `CC1(NC[C@H](O)c2cccc(F)c2)CC1` [Compound 63, (R)-1-(3-fluorophenyl)-2-((1-methylcyclopropyl)amino)-ethan-1-ol]: 50 to 75%; for `COC(=O)[C@H]1CC[C@H](CCC(C)(C)NC[C@H](O)c2cncc(F)c2)CC1` [Compound 47, methyl (trans)-4-(3-(((R)-2-(5-fluoropyridin-3-yl)-2-hydroxyethyl)amino)-3-methylbutyl)cyclohexane-1-carboxylate]: 50 to 75%.

Regarding `CCCCS(=O)(=O)N[C@H]1CC[C@@H](CC(C)(C)NC[C@H](O)c2cccc(F)c2)CC1` [Compound 12], the Emax at 10 µM is greater than 75%.

Take `CCC[C@@H](C)NC[C@H](O)c1cccc(O)c1` [Compound 69, 3-((R)-1-hydroxy-2-(((R)-pentan-2-yl)amino)ethyl)-phenol]: the Emax at 10 µM was greater than 75%. Still for that read-out and setting: the same measure for `CC(C)(CC[C@H]1CC[C@@H](O)CC1)NC[C@H](O)c1ccccc1F` [Compound 50, (cis)-4-(3-(((R)-2-(2-fluoro-phenyl)-2-hydroxyethyl)-amino)-3-methylbutyl)-cyclohexan-1-ol]: 50 to 75%. On the same count and under the same terms, the same measure for `CCS(=O)(=O)N[C@H]1CC[C@H](CC(C)(C)NC[C@H](O)c2cccc(F)c2)CC1` [Compound 17, N-((trans)-4-(2-(((R)-2-(3-fluorophenyl)-2-ethyl)amino)-2-methylpropyl)cyclohexyl)-ethanesulfonamide]: greater than 75%; for `CS(=O)(=O)N[C@H]1CC[C@H](C[C@@H]2CC[C@H]([C@H](O)c3cccc(F)c3)N2)CC1` [Compound 24, N-((trans)-4-(((2S,5R)-5-((R)-(3-fluorophenyl)-(hydroxy)methyl)pyrrolidin-2-yl)methyl)cyclohexyl)-methanesulfonamide]: greater than 75%; for `CO[C@H]1CC[C@@H](CC(C)(C)NC[C@H](O)c2ccc(F)c(N)c2F)CC1` [Compound 36, (R)-1-(3-amino-2,4-difluoro-phenyl)-2-((1-((cis)-4-methoxycyclohexyl)-2-methylpropan-2-yl)amino)-ethan-1-ol]: greater than 75%. The same measure, in the same setting: the same measure for `CC(C)(C[C@H]1CC[C@H](NC(=O)C(F)(F)F)CC1)NC[C@H](O)c1cccc(F)c1` [Compound 33, 2,2,2-trifluoro-N-((1R,4r)-4-(2-(((R)-2-(3-fluorophenyl)-2-hydroxyethyl)amino)-2-methylpropyl)cyclohexyl)-acetamide]: greater than 75%. Regarding `CCCCS(=O)(=O)N[C@H]1CC[C@H](CC(C)(C)NC[C@H](O)c2cncc(F)c2)CC1` [Compound 19, N-((trans)-4-(2-(((R)-2-(5-fluoropyridin-3-yl)-2-hydroxyethyl)amino)-2-methylpropyl)cyclohexyl)-butane-1-sulfonamide], the Emax at 10 µM was greater than 75%. As for `CC(C)(C)NCC(O)c1ccncc1O` (stereo not shown) [Compound 60, 4-(2-(tert-butylamino)-1-hydroxyethyl)pyridin-3-ol], the Emax at 10 µM is greater than 75%. The same measure, in the same setting: the same measure for `CC(C)(C)NC[C@H](O)c1ccc(F)c(N)c1F` [Compound 59, (R)-1-(3-amino-2,4-difluoro-phenyl)-2-(tert-butylamino)-ethan-1-ol]: greater than 75%; for `CC(C)(CC[C@H]1CC[C@H](O)CC1)NC[C@H](O)c1ccccc1F` [Compound 51, (trans)-4-(3-(((R)-2-(2-fluorophenyl)-2-hydroxy-ethyl)amino)-3-methylbutyl)-cyclohexan-1-ol]: greater than 75%; for `CN(C)C(=O)N1CCC[C@@H](CC(C)(C)NC[C@H](O)c2cccc(F)c2)C1` [Compound 4, (S)-3-(2-(((R)-2-(3-fluoro-phenyl)-2-hydroxyethyl)-amino)-2-methylpropyl)-N,N-dimethylpiperidine-1-carboxamide]: greater than 75%. The same measure, in the same setting: the same measure for `CCCS(=O)(=O)N[C@H]1CC[C@H](CC(C)(C)NC[C@H](O)c2cccc(F)c2)CC1` [Compound 31, N-((trans)-4-(2-(((R)-2-(3-fluorophenyl)-2-hydroxy-ethyl)amino)-2-methyl-propyl)cyclohexyl)propane-1-sulfonamide]: greater than 75%. As for `CC(C)CS(=O)(=O)N[C@H]1CC[C@@H](CC(C)(C)NC[C@H](O)c2cccc(F)c2)CC1` [Compound 16, N-((cis)-4-(2-(((R)-2-(3-fluorophenyl)-2-hydroxy-ethyl)amino)-2-methyl-propyl)cyclohexyl)-2-methyl-propane-1-sulfonamide], the Emax at 10 µM was greater than 75%.

Take `CO[C@H]1CC[C@H](C[C@@H]2CC[C@H]([C@H](O)c3ccccc3F)N2)CC1` [Compound 49, (R)-(2-fluorophenyl)((2R,5S)-5-(((trans)-4-methoxycyclo-hexyl)methyl)pyrrolidin-2-yl)-methanol]: the Emax at 10 µM is 50 to 75%.

As for `CC12CC(C1)[C@H]([C@H](O)c1cccc(F)c1)N2` [Compound 55, (R)-(3-fluorophenyl)((R)-1-methyl-2-azabicyclo[2.1.1]-hexan-3-yl)methanol], the Emax at 10 µM lay within 50 to 75%. With `CC(C)(C[C@H]1CC[C@H](NS(C)(=O)=O)CC1)NC[C@H](O)c1cccc(C#N)n1` [Compound 35, N-((trans)-4-(2-(((S)-2-(6-cyanopyridin-2-yl)-2-hydroxyethyl)amino)-2-methylpropyl)cyclohexyl)-methanesulfonamide], the Emax at 10 µM was greater than 75%. Same read-out and setting: the same measure for `CCC[C@@H](C)NC[C@H](O)c1cccc(F)c1` [Compound 66, (R)-1-(3-fluorophenyl)-2-(((R)-pentan-2-yl)amino)-ethan-1-ol]: greater than 75%. Still for that read-out and setting: the same measure for `CCOC(=O)CO[C@H]1CC[C@H](C(C)(C)NC[C@H](O)c2cccc(F)c2)CC1` [Compound 41, ethyl 2-(((1R,4r)-4-(2-(((R)-2-(3-fluorophenyl)-2-hydroxyethyl)amino)propan-2-yl)cyclohexyl)oxy)acetate]: greater than 75%; for `CO[C@H]1CC[C@H](C[C@@H]2CC[C@H]([C@H](O)c3cccc(F)c3F)N2)CC1` [Compound 6, (R)-(2,3-difluorophenyl)-((2R,5S)-5-(((trans)-4-methoxycyclohexyl)methyl)-pyrrolidin-2-yl)methanol]: greater than 75%. Consider `CC(C)(C)NC[C@H](O)c1cccc(F)c1F` [Compound 65, (R)-2-(tert-butylamino)-1-(2,3-difluorophenyl)ethan-1-ol], for which the Emax at 10 µM was greater than 75%. Turning to `CO[C@H]1CC[C@H](C(C)(C)NC[C@H](O)c2cccc(F)c2)CC1` [Compound 54, (R)-1-(3-fluorophenyl)-2-((2-((trans)-4-methoxycyclo-hexyl)propan-2-yl)amino)-ethan-1-ol], the Emax at 10 µM was 50 to 75%. On the same count and under the same terms, the same measure for `CC(C)(C)[C@H]1CC[C@H]([C@H](O)c2cccc(F)c2)N1` [Compound 57, (R)-((2R,5R)-5-(tert-butyl)-pyrrolidin-2-yl)(3-fluoro-phenyl)methanol]: 50 to 75%; for `CCCS(=O)(=O)N[C@H]1CC[C@H](CC(C)(C)NC[C@H](O)c2cncc(F)c2)CC1` [Compound 10, N-((trans)-4-(2-(((R)-2-(5-fluoropyridin-3-yl)-2-hydroxyethyl)amino)-2-methylpropyl)cyclohexyl)-propane-1-sulfonamide]: greater than 75%; for `CNS(=O)(=O)[C@H]1CC[C@H](CC(C)(C)NC[C@H](O)c2cccc(F)c2)CC1` [Compound 27, (trans)-4-(2-(((R)-2-(3-fluorophenyl)-2-hydroxy-ethyl)amino)-2-methy-propyl)-N-methyl-cyclohexane-1-sulfonamide]: greater than 75%.

These data come from US20250262170A1, “COMBINATIONS OF BETA 2-ADRENERGIC RECEPTOR AGONISTS AND BETA 3-ADRENERGIC RECEPTOR AGONISTS, AND MEDICAL USES THEREOF” (ATROGI AB, priority 2022, published 2025).
